Experimental data: patent US12195460B2, “Pyrido-[3,4-d]pyridazine amine derivatives useful as NLRP3 inhibitors” (Ventus Therapeutics U.S., Inc., priority 2022, dated 2025)

Assay: Brain levels (Kp and Kpu,u) in mice after oral administration
Format: in vivo, CDI mice
Details: 20 mpk PO; for kpu, u: kp corrected with mouse plasma protein binding and mouse brain homogenate binding; for Kp at 24 h: CDI, mouse, 20 mg/kg, whole brain AUC over 24 h divided by plasma AUC
Experimental: Brain Levels (Kp and Kpu,u)—NLRP3
The in vivo total brain to plasma ratio was assessed in CDI mice after oral administration of the compound. Blood was collected at several timepoints up to 24 h, and transferred into plastic micro centrifuge tubes with EDTA-K2 as anticoagulant. Blood samples were centrifuged at 4000 g for 5 minutes at 4° C. to obtain plasma, then immediately frozen and stored at −75±15° C. prior to analysis. Animals were terminally anaesthetized with a rising concentration of CO2 gas at about 1 minute. At selected timepoints, whole brains were removed from the skull, rinsed in cold PBS to remove blood, dried with clean gauze, then frozen in liquid nitrogen and kept at −75±15° C. before analysis. At the time of analysis, brain samples were homogenized with PBS by tissue weight (g) to PBS volume (mL) ratio 1:3. Plasma and brain drug levels were quantified by LC/MS/MS on a AB Sciex Triple Quad 5500+ instrument, after separation on a HALO 160A ES-C18, 2.7 μm 2.1×50 mm column. Quantitation was performed using a calibration curve prepared in blank plasma or blank brain homogenate. The software WinNonlin (Phoenix™) was used for pharmacokinetic analysis from the concentrations versus time data, including the AUCinf and AUClast. The Kp ratio (total brain concentration over total plasma concentration) was calculated as (AUCtot,hr)/(AUCtot,pl).
The unbound brain exposure was assessed as Kpuu, which is the free brain/free plasma concentration ratio (Cu,hr/Cu,pl). The Cu,bt/Cu,pl ratios were obtained from in vivo total brain to plasma ratios (Ctot,br/Ctot,pl) by using in vitro determined Fu,br and Fu,pl.
Plasma protein binding and brain homogenate protein binding were measured by equilibrium dialysis in a HTDialysis plate. The dialysis membranes were soaked in ultrapure water for 60 minutes to separate strips, then in 20% ethanol for 20 minutes, finally in dialysis buffer for 20 minutes. The dialysis set up was assembled according to the manufacturer's instruction. Each cell received 150 μL of plasma or brain homogenate spiked with 1 μM of compound, and dialyzed against an equal volume of dialysis buffer (PBS). The dialysis plate was sealed and incubated in an incubator at 37° C. with 5% CO2 at 100 rpm for 6 hours. At the end of incubation, compound concentration was measured in both chambers by LC-MS/MS on a Triple Quad™ 5500 from AB Inc after separation on a XSelect Hss T3 2.5μ (2.1×30 mm) column. Free fraction (Fu) was calculated as (Peak Area Ratio buffer chamber/Peak Area Ratio plasma chamber).
Finally, Kpuu was calculated as (AUCtot,br×Fu,bt)/(AUCtot,pl×Fu,pl).
Table 3 assigns each compound a code for kp and kpu,u values: A or B. According to the code, A represents a value of >0.3 and B represents a value of <0.3. […] The kpu,u was then calculated upon correcting this kp value with mouse plasma protein binding and mouse brain homogenates binding.

kpu, u | Kp at 24 h | Compound
A (A represents a value of >0.3) |  | CC1(C)COC[C@@H]1Nc1nnc(-c2ccc(Cl)cc2O)c2ccncc12 [Compound 1, (R)-5-chloro-2-(4-((4,4-dimethyltetrahydrofuran-3-yl)amino)pyrido[3,4-d]pyridazin-1-yl)phenol]
A (A represents a value of >0.3) | > 0.3 | CC1(C)COCC[C@H]1Nc1nnc(-c2ccc(Cl)cc2O)c2ccncc12 [Compound 3, (R)-5-chloro-2-(4-((3,3-dimethyltetrahydro-2H-pyran-4-yl)amino)pyrido[3,4-d]pyridazin-1-yl)phenol]
B (B represents a value of <0.3) |  | Oc1cc(Cl)ccc1-c1nnc(N[C@H]2CCOC2)c2cnccc12 [Compound 7, (S)-5-chloro-2-(4-((tetrahydrofuran-3-yl)amino)pyrido[3,4-d]pyridazin-1-yl)phenol, reference compound]

The next lines start with the molecule.

Compound | kpu, u | Kp at 24 h
[2H]C([2H])([2H])OC(C)(C)CNc1nnc(-c2ccc(C(F)F)cc2O)c2ccncc12 [Compound 2, 5-(difluoromethyl)-2-(4-((2-(methoxy-d3)-2-methylpropyl)amino)pyrido[3,4-d]pyridazin-1-yl)phenol] | A (A represents a value of >0.3) | > 0.3
CC1(C)C[C@@H](Nc2nnc(-c3ccc(Cl)cc3O)c3ccncc23)CCO1 [Compound 4, (S)-5-chloro-2-(4-((2,2-dimethyltetrahydro-2H-pyran-4-yl)amino)pyrido[3,4-d]pyridazin-1-yl)phenol] | A (A represents a value of >0.3) | 
Cc1ccc(-c2nnc(N[C@H]3COC(C)(C)C3)c3cnccc23)c(O)c1 [Compound 5, (R)-2-(4-((5,5-dimethyltetrahydrofuran-3-yl)amino)pyrido[3,4-d]pyridazin-1-yl)-5-methylphenol] | A (A represents a value of >0.3) | > 0.3
CN1CCO[C@@H](CNc2nnc(-c3ccc(C(F)(F)F)cc3O)c3ccncc23)C1 [Compound 6, (S)-2-(4-(((4-methylmorpholin-2-yl)methyl)amino)pyrido[3,4-d]pyridazin-1-yl)-5-(trifluoromethyl)phenol] | A (A represents a value of >0.3) | 
OCC1(CNc2nnc(-c3ccc(Cl)cc3O)c3ccncc23)CC1 [Compound 8, 5-chloro-2-(4-(((1-(hydroxymethyl)cyclopropyl)methyl)amino)pyrido[3,4-d]pyridazin-1-yl)phenol, reference compound] | B (B represents a value of <0.3) | < 0.3
